Laboratory results: patent US6958331B1, “Bradykinin receptor antagonists” (Novartis AG, priority 1999, dated 2005)

Biological target: T1, human bradykinin B1 receptor (Homo sapiens, UniProt P46663)
T1 construct: expressed in transfected cells; membranes
T1 sequence (P46663 1-353): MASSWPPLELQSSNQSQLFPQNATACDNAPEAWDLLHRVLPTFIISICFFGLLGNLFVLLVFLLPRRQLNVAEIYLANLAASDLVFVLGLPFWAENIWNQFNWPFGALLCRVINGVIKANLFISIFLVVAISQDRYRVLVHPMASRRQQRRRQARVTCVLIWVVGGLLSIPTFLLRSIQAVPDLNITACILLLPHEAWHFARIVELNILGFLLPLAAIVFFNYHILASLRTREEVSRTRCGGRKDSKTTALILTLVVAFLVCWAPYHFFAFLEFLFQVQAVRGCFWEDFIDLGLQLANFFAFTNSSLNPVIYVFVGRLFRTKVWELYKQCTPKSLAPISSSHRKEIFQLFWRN
Assay: Test I: Bradykinin Receptor Binding Assay ([3H]desArg10-kallidin displacement, HEK 293 membranes)
Details: statement in words
Protocol: This cDNA is sequenced and subcloned into pcDNA3 (Clontech) and used to generate a cell-line which expresses the human bradykinin B1 receptor.
Cells are grown in Mininum Essential Medium with Eade's Salts (GIBCO) supplemented with 2 mM L-glutamine, 100 units/ml penicillin, 100 μg/ml streptomycin, 1% nonessential amino acids and 10% myodone foetal calf serum (GIBCO) in a humidified atmosphere with 5% CO2 at 37° C.
One 175 cm^2 flask with approximately 50% confluent cells is transfected with approximately 30 μg/ml HB1-pcDNA3 DNA using the calcium phosphate precipitate method of transfection. The flask of transfected cells is split 1:3 on day 2 post transfecdon to prevent overgrowth. The following day the cells are split 1:5 and selection in 700 μg/ml G418 begins. The selective medium is changed every 3-4 days. When distinct G418 resistant colonies of transfected cells are seen, approximately 4 weeks after transfection, the cells are cloned by limiting dilution and assayed for binding of [^3H]desArg^10-kallidin. […]
Specific binding to the bradykinin B1 receptor is defined as the difference between that found in total bound tubes and that found in non-specific binding tubes. […] Mimoscintillant-40 Liquid scintillant is added to the filters and radioactivity bound is determined in a Canberra Packard Topcount scintillation counter. […]

For CC(C)N1CCN(C(=O)C2CCN(S(=O)(=O)c3ccc(NCC(c4ccccc4)c4ccccc4)c(C(=O)N4CCOCC4)c3)CC2)CC1 [Example 1, {2-(2,2-diphenyl-ethylamino)-5-[4-(4-Isopropyl-piperazine-1-carbonyl)-piperidine-1-sulfonyl]-pheny}-morpholin-4-yl-methanone], the “active at the human B1 bradykinin receptor” value was “active”.
